# Source: ChEMBL document CHEMBL4507319 (2021)
# How the values were obtained:
# [1] = molecular target: Beta-3 adrenergic receptor (Homo sapiens) (UniProt P13945); conditions: Compound concentration 10.0 uM
# [2] = molecular target: T1, Serine/threonine-protein kinase Sgk2 (Homo sapiens) (UniProt Q9HBY8); test: SGK2(h) Eurofins kinase panel; conditions: Compound concentration 1.0 uM
# T1 sequence (whole entry): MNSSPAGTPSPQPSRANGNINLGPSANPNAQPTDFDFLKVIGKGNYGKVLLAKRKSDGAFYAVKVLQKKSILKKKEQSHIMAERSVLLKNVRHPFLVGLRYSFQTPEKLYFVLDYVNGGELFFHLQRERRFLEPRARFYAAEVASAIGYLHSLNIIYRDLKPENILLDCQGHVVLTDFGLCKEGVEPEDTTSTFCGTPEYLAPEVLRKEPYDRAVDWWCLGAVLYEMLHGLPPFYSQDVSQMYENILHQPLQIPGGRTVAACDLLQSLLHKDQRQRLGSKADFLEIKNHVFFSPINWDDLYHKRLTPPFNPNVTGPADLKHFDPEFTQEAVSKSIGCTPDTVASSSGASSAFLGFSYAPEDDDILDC
# [3] = molecular target: Serine/threonine-protein kinase SIK3 (Homo sapiens) (UniProt Q9Y2K2); test: SIK3(h) Eurofins kinase panel; conditions: Compound concentration 1.0 uM
# Serine/threonine-protein kinase SIK3 (Homo sapiens), sequence (Q9Y2K2 whole entry, looked up): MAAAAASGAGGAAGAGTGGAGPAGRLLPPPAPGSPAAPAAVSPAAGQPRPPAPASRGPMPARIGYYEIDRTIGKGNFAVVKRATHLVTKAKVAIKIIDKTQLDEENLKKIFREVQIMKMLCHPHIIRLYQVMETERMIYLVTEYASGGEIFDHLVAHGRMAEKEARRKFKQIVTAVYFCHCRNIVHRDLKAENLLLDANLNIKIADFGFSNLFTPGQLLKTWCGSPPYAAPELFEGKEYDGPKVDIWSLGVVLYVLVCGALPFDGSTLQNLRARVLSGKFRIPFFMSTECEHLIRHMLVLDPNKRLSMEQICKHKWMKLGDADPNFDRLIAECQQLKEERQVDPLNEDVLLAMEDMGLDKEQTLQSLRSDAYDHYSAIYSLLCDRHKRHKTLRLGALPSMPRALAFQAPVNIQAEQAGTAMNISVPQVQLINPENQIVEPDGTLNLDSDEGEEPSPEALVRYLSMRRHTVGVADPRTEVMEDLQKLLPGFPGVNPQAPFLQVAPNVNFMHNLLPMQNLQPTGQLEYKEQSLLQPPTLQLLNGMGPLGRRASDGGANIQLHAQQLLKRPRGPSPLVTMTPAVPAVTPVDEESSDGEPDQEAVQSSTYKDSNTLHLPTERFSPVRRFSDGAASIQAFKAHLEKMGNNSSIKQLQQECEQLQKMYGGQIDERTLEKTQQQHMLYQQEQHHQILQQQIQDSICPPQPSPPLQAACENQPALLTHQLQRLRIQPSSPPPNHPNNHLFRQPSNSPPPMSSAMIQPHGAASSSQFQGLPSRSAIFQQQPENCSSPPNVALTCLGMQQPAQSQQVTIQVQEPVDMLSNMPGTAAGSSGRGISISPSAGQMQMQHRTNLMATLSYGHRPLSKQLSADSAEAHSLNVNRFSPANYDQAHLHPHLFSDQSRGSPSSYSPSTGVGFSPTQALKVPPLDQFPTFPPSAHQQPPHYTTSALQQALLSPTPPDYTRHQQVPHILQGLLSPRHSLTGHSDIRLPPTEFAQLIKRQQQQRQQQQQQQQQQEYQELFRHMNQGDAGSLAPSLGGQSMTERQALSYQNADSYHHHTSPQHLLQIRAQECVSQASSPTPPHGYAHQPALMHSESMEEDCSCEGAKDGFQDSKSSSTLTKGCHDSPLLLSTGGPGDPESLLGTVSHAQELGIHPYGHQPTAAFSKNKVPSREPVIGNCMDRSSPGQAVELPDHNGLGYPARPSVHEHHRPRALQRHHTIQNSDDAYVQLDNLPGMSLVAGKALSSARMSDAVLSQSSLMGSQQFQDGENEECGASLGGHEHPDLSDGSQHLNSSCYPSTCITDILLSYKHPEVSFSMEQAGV
# [4] = molecular target: Testis-specific serine/threonine-protein kinase 4 (Homo sapiens) (UniProt Q6SA08); test: TSSK4(h) Eurofins kinase panel; conditions: Compound concentration 1.0 uM
# Testis-specific serine/threonine-protein kinase 4 (Homo sapiens), sequence (Q6SA08 whole entry): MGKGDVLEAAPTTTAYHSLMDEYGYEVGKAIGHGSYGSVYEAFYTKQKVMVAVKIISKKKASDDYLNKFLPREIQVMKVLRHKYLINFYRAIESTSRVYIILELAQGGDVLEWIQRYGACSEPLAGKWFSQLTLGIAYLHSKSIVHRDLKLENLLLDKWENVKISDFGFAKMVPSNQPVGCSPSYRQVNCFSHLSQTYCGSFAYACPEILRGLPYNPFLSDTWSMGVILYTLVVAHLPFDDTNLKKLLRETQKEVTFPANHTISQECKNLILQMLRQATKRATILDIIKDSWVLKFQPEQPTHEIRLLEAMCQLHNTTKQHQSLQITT
# [5] = molecular target: T2, Dual specificity mitogen-activated protein kinase kinase 7 (Homo sapiens) (UniProt O14733); test: MKK7beta(h) Eurofins kinase panel; conditions: Compound concentration 1.0 uM
# T2 sequence (whole entry): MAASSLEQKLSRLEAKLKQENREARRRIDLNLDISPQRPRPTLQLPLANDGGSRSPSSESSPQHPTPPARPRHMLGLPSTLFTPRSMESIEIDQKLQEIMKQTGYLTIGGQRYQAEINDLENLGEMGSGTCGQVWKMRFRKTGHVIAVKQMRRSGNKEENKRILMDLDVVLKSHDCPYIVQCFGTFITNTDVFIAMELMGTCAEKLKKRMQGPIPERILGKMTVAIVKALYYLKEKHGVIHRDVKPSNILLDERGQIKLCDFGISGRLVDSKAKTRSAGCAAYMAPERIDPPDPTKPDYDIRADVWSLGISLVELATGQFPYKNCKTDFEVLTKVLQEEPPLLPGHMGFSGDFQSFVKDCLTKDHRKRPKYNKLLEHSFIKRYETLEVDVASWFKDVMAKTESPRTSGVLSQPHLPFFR
# [6] = molecular target: Casein kinase I isoform gamma-2 (Homo sapiens) (UniProt P78368); test: CK1gamma2(h) Eurofins kinase panel; conditions: Compound concentration 1.0 uM
# Casein kinase I isoform gamma-2 (Homo sapiens), sequence (P78368 whole entry, looked up, canonical isoform): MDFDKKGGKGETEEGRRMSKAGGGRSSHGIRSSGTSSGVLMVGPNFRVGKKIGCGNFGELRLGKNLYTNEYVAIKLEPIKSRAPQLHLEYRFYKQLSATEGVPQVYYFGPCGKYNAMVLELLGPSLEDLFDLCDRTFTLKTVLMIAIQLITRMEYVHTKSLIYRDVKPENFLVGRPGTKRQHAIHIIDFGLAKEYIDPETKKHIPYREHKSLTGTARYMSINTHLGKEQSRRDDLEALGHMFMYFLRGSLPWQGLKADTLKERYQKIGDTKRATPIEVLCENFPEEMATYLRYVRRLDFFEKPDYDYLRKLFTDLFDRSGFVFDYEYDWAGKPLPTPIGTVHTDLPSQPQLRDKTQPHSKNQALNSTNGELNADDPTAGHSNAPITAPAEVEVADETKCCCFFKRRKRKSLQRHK
# [7] = molecular target: Serine/threonine-protein kinase SIK1 (Homo sapiens) (UniProt P57059); test: SIK(h) Eurofins kinase panel; conditions: Compound concentration 1.0 uM
# Serine/threonine-protein kinase SIK1 (Homo sapiens), sequence (P57059 whole entry): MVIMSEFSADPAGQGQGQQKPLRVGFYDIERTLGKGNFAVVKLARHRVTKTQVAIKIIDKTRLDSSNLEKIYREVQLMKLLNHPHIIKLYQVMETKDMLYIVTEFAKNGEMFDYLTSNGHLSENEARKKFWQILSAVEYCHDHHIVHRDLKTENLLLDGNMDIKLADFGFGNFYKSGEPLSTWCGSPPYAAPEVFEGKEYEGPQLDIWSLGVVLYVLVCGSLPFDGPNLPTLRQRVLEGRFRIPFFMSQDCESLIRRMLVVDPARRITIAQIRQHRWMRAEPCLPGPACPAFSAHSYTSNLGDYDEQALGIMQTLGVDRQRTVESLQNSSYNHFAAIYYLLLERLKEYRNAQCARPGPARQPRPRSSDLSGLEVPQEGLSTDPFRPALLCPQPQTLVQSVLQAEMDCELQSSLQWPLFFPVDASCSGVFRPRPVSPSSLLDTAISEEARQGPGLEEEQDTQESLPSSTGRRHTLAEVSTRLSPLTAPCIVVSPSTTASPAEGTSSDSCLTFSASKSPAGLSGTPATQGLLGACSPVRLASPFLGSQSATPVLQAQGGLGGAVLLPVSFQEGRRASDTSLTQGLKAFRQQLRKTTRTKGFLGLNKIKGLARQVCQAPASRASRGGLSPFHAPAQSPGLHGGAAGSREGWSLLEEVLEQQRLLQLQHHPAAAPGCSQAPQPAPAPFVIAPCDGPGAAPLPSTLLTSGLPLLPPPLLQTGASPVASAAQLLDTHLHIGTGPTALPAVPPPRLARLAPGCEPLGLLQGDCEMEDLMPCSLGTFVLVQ
# [8] = molecular target: T3, Serine/threonine-protein kinase ULK3 (Homo sapiens) (UniProt Q6PHR2); test: ULK3(h) Eurofins kinase panel; conditions: Compound concentration 1.0 uM
# T3 sequence (whole entry): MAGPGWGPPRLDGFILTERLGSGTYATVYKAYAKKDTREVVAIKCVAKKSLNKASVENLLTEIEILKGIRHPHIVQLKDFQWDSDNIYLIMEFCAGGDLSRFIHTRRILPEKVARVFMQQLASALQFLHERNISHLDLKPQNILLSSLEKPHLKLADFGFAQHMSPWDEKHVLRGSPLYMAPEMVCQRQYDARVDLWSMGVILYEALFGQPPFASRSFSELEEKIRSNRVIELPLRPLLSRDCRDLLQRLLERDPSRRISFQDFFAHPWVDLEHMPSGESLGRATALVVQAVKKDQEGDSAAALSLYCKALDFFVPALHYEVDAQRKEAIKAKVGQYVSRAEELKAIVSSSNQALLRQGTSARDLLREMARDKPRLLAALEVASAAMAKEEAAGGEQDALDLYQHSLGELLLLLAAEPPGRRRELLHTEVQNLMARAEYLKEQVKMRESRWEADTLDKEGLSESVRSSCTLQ
# [9] = molecular target: T4, Serine/threonine-protein kinase Sgk1 (Homo sapiens) (UniProt O00141); test: SGK(h) Eurofins kinase panel; conditions: Compound concentration 1.0 uM
# T4 sequence (whole entry): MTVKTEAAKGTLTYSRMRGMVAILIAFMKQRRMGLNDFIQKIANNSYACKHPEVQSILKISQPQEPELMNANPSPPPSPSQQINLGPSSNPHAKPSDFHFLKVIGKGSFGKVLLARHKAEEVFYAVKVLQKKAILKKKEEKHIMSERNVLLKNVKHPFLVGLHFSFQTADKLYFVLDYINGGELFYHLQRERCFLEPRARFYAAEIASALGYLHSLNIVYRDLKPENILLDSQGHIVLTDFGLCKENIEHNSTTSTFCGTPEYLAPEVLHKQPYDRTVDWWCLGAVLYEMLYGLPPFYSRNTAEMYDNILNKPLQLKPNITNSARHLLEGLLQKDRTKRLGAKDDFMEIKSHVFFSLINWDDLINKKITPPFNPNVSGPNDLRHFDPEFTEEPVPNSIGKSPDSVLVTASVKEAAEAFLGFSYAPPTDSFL
# [10] = molecular target: 5'-AMP-activated protein kinase catalytic subunit alpha-1 (Homo sapiens, UniProt Q13131)
# 5'-AMP-activated protein kinase catalytic subunit alpha-1, sequence (Q13131 whole entry): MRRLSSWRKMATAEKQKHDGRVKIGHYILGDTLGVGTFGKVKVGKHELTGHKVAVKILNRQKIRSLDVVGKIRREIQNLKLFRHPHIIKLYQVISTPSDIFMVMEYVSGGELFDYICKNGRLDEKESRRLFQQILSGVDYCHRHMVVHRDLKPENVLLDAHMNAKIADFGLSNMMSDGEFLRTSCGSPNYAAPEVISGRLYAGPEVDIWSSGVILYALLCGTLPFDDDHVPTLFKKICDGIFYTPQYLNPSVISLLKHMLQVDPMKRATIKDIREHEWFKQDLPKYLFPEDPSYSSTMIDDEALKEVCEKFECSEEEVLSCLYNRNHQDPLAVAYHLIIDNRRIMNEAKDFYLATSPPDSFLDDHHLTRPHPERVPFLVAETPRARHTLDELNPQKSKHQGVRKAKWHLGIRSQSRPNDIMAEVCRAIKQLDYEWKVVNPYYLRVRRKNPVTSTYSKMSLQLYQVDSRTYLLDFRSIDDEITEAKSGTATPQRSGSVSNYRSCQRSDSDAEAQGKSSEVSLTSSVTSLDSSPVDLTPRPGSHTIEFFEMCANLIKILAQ
# [11] = molecular target: Cyclin-dependent kinase 5/CDK5 activator 1 (Homo sapiens) (UniProt Q00535+Q15078); test: CDK5/p25(h) Eurofins kinase panel; format: protein-complex assay; conditions: Compound concentration 1.0 uM
# Cyclin-dependent kinase 5/CDK5 activator 1 (Homo sapiens), sequence (Q00535 whole entry): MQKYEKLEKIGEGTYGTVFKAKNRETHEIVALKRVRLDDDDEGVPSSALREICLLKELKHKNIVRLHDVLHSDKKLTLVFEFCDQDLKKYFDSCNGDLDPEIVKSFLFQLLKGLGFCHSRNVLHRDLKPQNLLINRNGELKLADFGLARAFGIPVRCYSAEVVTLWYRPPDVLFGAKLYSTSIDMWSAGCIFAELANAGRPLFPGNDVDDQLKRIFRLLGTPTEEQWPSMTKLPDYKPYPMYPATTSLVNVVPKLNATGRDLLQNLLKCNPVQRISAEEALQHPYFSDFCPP
# Cyclin-dependent kinase 5/CDK5 activator 1 (Homo sapiens), sequence (Q15078 99-307 partner limits assumed): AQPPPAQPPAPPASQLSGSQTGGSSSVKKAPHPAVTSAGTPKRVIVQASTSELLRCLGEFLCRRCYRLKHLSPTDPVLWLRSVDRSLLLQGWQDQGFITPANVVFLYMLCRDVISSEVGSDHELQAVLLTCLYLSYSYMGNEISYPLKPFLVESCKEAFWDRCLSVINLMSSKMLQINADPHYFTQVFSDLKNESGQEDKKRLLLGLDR
# Beta-3 adrenergic receptor (Homo sapiens), sequence (P13945 whole entry, looked up): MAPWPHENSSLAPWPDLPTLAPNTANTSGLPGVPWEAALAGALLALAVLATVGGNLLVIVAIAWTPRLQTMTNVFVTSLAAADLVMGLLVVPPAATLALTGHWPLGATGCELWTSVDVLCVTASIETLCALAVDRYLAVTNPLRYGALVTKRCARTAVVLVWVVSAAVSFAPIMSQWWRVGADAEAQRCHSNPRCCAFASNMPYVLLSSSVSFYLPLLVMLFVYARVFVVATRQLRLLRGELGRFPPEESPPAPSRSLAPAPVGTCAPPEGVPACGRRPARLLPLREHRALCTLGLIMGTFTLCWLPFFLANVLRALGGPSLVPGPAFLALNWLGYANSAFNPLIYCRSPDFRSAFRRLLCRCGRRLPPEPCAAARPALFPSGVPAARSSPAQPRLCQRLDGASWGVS
Structure (SMILES),inhibition [1] [%],% residual kinase activity [2] [%],% residual kinase activity [3] [%],% residual kinase activity [4] [%],% residual kinase activity [5] [%],% residual kinase activity [6] [%],% residual kinase activity [7] [%],% residual kinase activity [8] [%],% residual kinase activity [9] [%],IC50 [10] [nM],% residual kinase activity [11] [%]
CC1=C(C#N)C(c2ccc3c(c2)c(NC(=O)c2ccccc2C)nn3C)C(C#N)=C(C)N1 [BAY-974],-3.33,–,–,–,–,–,–,–,–,–,–
CCc1ccccc1C(=O)Nc1n[nH]c2c(C)c(F)c(C3C(C#N)=C(C)N(C)C(C)=C3C#N)cc12 [BAY-3827],–,70,84,103,103,98,86,59,79,10,98
